According to patent publication US8440674B2, “Substituted pyrimidine compounds as RAF inhibitors and methods of use” (Amgen Inc., priority 2005, dated 2013):
pIC50: −log10 of the molar value.

Experiments:
[1] = target: recombinant HuBraf V600E (Homo sapiens, UniProt P15056, V600E); assay: B-raf Homogenous Time Resolved Fluorescent (HTRF) kinase assay; format: biochemical; details: substrate MEK1, 10 uM ATP; threshold lists; read-out: IC50 for the inhibition of B-raf as measured by the HTRF assay
recombinant HuBraf V600E, sequence (P15056 whole entry V600E): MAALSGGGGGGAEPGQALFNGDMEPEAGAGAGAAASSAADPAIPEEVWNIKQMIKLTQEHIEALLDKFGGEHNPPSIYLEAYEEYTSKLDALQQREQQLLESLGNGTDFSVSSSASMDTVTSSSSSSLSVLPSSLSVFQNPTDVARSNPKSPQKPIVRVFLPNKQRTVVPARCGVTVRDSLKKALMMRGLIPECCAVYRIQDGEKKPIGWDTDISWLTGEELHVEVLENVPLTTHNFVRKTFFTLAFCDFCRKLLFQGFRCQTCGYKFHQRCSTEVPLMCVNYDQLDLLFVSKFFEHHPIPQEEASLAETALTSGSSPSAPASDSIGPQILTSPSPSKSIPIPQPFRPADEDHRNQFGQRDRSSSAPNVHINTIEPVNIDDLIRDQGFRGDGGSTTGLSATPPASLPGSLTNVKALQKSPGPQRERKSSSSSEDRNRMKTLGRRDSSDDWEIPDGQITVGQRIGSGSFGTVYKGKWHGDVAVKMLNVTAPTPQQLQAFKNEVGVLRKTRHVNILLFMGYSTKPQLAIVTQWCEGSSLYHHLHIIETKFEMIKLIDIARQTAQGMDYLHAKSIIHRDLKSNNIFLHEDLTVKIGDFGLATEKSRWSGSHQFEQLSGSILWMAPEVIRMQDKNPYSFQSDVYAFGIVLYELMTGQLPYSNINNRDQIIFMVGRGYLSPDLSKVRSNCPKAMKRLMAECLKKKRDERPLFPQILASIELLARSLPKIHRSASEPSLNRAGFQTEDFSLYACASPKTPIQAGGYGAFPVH
Method: A Homogeneous Time Resolved Fluorescence (HTRF) kinase assay was established to assay the ability of compounds to inhibit human mutant Braf kinase activity on the substrate MEK1. […] The final concentration of the kinase reaction buffer is 50 mM Tris-HCL pH 7.5, 10 mM MgCl2, 0.5% glucose, 0.5 mM DTT, 0.01% BSA.
The detection reaction proceeds for one hour and is read on a RubyStar (BMG Labtech) counter. IC50s for the test compounds are generated using Excel-XLfit software.

[2] = system: A375 cells, a human melanoma cell line having the V600E mutant Braf; assay: B-Raf cell-based assay (ratio of phospho-ERK1/2 to total ERK1/2); details: A-375, 1 h, P-ERK/total ERK, 60 minute incubation, threshold list, read-out: IC50 for the inhibition of B-raf as measured by the cell-based assay
Method: A cell-based assay was optimized to assay the ability of compounds to inhibit Braf activity in a whole cell context. […] The cell-based assay quantifies the ratio of phospho-ERK1/2 to total ERK1/2 and can thereby assay the cellular inhibition of Braf kinase activity.
A375 cells are plated into 96 well plates and grown to confluence. The cells are then changed into starve media (DMEM/0.1% BSA) for 60 minutes. Compounds in DMSO dose curves are then diluted in starve media and added to cells. […] After a 60 minute incubation the cells are fixed for 20 minutes at room temperature in 4% formaldehyde with 0.1%Triton X-100, protease and phosphatase inhibitors in PBS. The cells are washed four times in PBS then blocked for 60 minutes using a one to one mix of Odyssey blocking buffer (Li-Cor Biosciences, Inc) and PBS. Primary antibodies (rabbit anti-phospho p42/p44 MAPK (P-ERK1/2) from Cell Signaling Technology and mouse anti-ERK2 from Santa Cruz Biotechnology) are diluted in blocking buffer, added to the cells and incubated overnight at 4° C. The cells are then washed four times in PBS/0.1% Tween-20. Secondary antibodies (anti-mouse IRDye 800CW from Rockland, Inc and anti-rabbit AlexaFlour680 from Molecular Probes) are diluted in blocking buffer/0.5% Tween and incubated on cells for 60 minutes. After 4 washes in PBS/0.1% Tween-20 the microplate is scanned on an Odyssey Infrared Imager (Li-Cor Bioscience) which can read the signal given by the two secondary antibodies on their respective channels. The ratio of P-ERK/total ERK is determined and IC50s generated using Excel-XLfit software.

Compound	pIC50 [1]	pIC50 [2]
CNc1ncc2cc(-c3c(C)ccc4c(Nc5cc(C(F)(F)F)ccn5)nccc34)ccc2n1 [Example 34, N-methyl-6-(6-methyl-1-((4-(trifluoromethyl)-2-pyridinyl)amino)-5-isoquinolinyl)-2-quinazolinamine]	≥ 6.60	≥ 6.30
CNc1ncc2cc(-c3c(C)ccc4c(Nc5ccc(OC)c(C(F)(F)F)c5)nccc34)ccc2n1 [Example 35, N-methyl-6-(6-methyl-1-((4-(methyloxy)-3-(trifluoromethyl)phenyl)amino)-5-isoquinolinyl)-2-quinazolinamine]	≥ 6.60	≥ 6.30
CNc1ncc2cc(-c3c(C)ccc4c(Nc5nnc(C6CC6)s5)nccc34)ccc2n1 [Example 36, 6-(1-((5-cyclopropyl-1,3,4-thiadiazol-2-yl)amino)-6-methyl-5-isoquinolinyl)-N-methyl-2-quinazolinamine]	≥ 6.60	≥ 6.30
CNc1ncc2cc(-c3c(C)ccc4c(Nc5ccc6[nH]ncc6c5)nccc34)ccc2n1 [Example 37, 6-(1-(1H-indazol-5-ylamino)-6-methyl-5-isoquinolinyl)-N-methyl-2-quinazolinamine]	≥ 6.60	≥ 6.30
CNc1ncc2cc(-c3c(C)ccc4c(Nc5ccc6c(c5)CCC6)nccc34)ccc2n1 [Example 38, 6-(1-(2,3-dihydro-1H-inden-5-ylamino)-6-methyl-5-isoquinolinyl)-N-methyl-2-quinazolinamine]	≥ 6.60	≥ 6.30
CNc1ncc2cc(-c3c(C)ccc4c(Nc5ccc6sc(C)nc6c5)nccc34)ccc2n1 [Example 39, N-methyl-6-(6-methyl-1-((2-methyl-1,3-benzothiazol-5-yl)amino)-5-isoquinolinyl)-2-quinazolinamine]	≥ 6.60	≥ 6.30
CNc1ncc2cc(-c3c(C)ccc4c(Nc5ccc(F)c(OC(C)C)c5)nccc34)ccc2n1 [Example 40, 6-(1-((4-fluoro-3-((1-methylethyl)oxy)phenyl)amino)-6-methyl-5-isoquinolinyl)-N-methyl-2-quinazolinamine]	≥ 6.60	≥ 6.30
CNc1ncc2cc(-c3c(C)ccc4c(Nc5cncc(C(F)(F)F)c5)nccc34)ccc2n1 [Example 41, N-methyl-6-(6-methyl-1-((5-(trifluoromethyl)-3-pyridinyl)amino)-5-isoquinolinyl)-2-quinazolinamine]	≥ 6.60	≥ 6.30

Now from value to compound:

pIC50 [1]	pIC50 [2]	Compound
≥ 6.60	≥ 6.30	CNc1ncc2cc(-c3c(C)ccc4c(Nc5cccc(C(C)(C)C)c5)nccc34)ccc2n1 [Example 28, 6-(1-((3-(1,1-dimethylethyl)phenyl)amino)-6-methyl-5-isoquinolinyl)-N-methyl-2-quinazolinamine]
≥ 6.60	≥ 6.30	CNc1ncc2cc(-c3c(C)ccc4c(Nc5cccc(Cl)c5)nccc34)ccc2n1 [Example 29, 6-(1-((3-chlorophenyl)amino)-6-methyl-5-isoquinolinyl)-N-methyl-2-quinazolinamine]
≥ 6.60	≥ 6.30	CNc1ncc2cc(-c3c(C)ccc4c(Nc5cccc(C#N)c5)nccc34)ccc2n1 [Example 30, 3-((6-methyl-5-(2-(methylamino)-6-quinazolinyl)-1-isoquinolinyl)amino)benzonitrile]
≥ 6.60	≥ 6.30	CNc1ncc2cc(-c3c(C)ccc4c(Nc5cccc(OC(F)(F)F)c5)nccc34)ccc2n1 [Example 32, N-methyl-6-(6-methyl-1-((3-((trifluoromethyl)oxy)phenyl)amino)-5-isoquinolinyl)-2-quinazolinamine]
≥ 6.60	≥ 6.30	CNc1ncc2cc(-c3c(C)ccc4c(Nc5ccc6c(c5)N(C(C)=O)CC6(C)C)nccc34)ccc2n1 [Example 33, 6-(1-((1-acetyl-3,3-dimethyl-2,3-dihydro-1H-indol-6-yl)amino)-6-methyl-5-isoquinolinyl)-N-methyl-2-quinazolinamine]
